The test concerns the target Dual specificity tyrosine-phosphorylation-regulated kinase 4 (Homo sapiens) (UniProt Q9NR20). Description: DYRK4 kinase inhibitors, dose response, biochemical, Z'-LYTE, FRET, protease-coupled, direct format (AID 1671209). Particulars: Z'-LYTE FRET kinase activity, recombinant DYRK4.

The structures appear in SMILES notation.

In PubChem BioAssay AID1671209 one finds IC50 data, which are given here for 1 molecule.

Dual specificity tyrosine-phosphorylation-regulated kinase 4 (Homo sapiens), sequence (Q9NR20 whole entry, looked up): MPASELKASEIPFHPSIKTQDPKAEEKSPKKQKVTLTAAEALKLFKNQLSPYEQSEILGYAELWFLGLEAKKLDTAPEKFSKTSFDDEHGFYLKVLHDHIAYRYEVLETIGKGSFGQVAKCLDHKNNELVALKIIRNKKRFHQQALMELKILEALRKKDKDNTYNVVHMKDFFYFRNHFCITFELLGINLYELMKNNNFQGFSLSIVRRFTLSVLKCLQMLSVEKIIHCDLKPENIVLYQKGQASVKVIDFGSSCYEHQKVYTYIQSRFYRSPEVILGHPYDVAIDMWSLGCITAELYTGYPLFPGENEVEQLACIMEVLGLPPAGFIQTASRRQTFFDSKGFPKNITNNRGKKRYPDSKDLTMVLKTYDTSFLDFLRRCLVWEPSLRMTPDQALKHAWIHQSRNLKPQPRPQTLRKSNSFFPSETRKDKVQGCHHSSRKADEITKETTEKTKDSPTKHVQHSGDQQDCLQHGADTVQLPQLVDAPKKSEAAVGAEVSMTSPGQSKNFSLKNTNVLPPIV

What is called IC50 is the midpoint of a concentration-inhibition curve. Consider `Brc1c(Br)c(Br)c2n[nH]nc2c1Br`, for which the IC50 is 12.9 µM.
